Measured values published in article PMC10287695, “Non-covalent inhibitors of thioredoxin glutathione reductase with schistosomicidal activity in vivo” (Nature Communications, 2023).
Values joined by “and” are separate entries in the source; they are usually repeats but may differ in a detail not shown here. Equal entries are not always repeated. “Also recorded” adds a separate entry of the source. Where two headings read alike, the source gives them in different places.

How the values were obtained:
[1] = Pharmacokinetics, oral gavage; settings: for plasma concentration, individual animals (Animal 1, Animal 2) / plasma concentration: listed as 1 (8VP101); for plasma concentration, individual animals (Animal 1, Animal 2) / concentration at 30 min / concentration at 60 min / concentration at 120 min / concentration at 0.5 h / concentration at 1 h / concentration at 2 h / plasma concentration: 200 mg/kg; for concentration at 30 min / concentration at 60 min / concentration at 120 min / concentration at 0.5 h / concentration at 1 h / concentration at 2 h: female, Swiss Webster, mouse, plasma, po
Description: Tween 80 and saline were then added to the DMSO solution in that order. Final solution was 10% DMSO:10% Tween 80:80% saline.
Swiss Webster female mice were purchased from Charles River Laboratories (Wilmington, MA, USA). […] All the mice were weighed and gavaged orally at 200 mg/kg body weight with freshly prepared 2. Blood was collected by submandibular puncture at 0, 0.25, 0.5, 1, and 2 h.
Samples were deproteinized with 150 µl of internal standard solution. This mixture was vortexed to mix properly and centrifuged at 13000 × g for 30 min. 160 µl of the supernatant was transferred to another set of tubes and dried using a nitrogen evaporator. Samples were reconstituted in 100 µl of methanol, vortexed and centrifuged at 13000 × g for 20 min. 30 µl of supernatant was transferred to autosampler vials.
Experiments were carried out on ThermoFisher Scientific Vanquish high-performance liquid chromatography connected to ThermoFisher Scientific TSQ Quantis – triple quadrupole mass spectrometer. The analyte molecules were separated on Phenomenex kinetex C18 column 100 Å (2.6 μm, 50 × 3 mm) with the mobile phase composed of Water/0.1% formic acid (A) and Acetonitrile (B) at the flow rate of 0.5 ml/min with the column temperature maintained at 40 °C and the sample of injection was 5 µl.
Quantification was performed using electrospray in the positive mode with the spray voltage of 3500 V. Sheath gas (Arb) 20, Auxiliary gas (Arb) 8 and Sweep gas (Arb) 5.7.

[2] = Reactivity with GSH or N-Boc protected methyl ester of selenocysteine (LCMS); assay type: physicochemical; settings: up to 120 h
Description: Dimethyl bis(N-tert-butoxycarbonyl)-L-selenocystine was synthesized as reported previously. (N-tert-butoxycarbonyl)-L-selenocysteine methyl ester was prepared in situ[86] in methanol or phosphate buffer. Compound 2 was added to the solution of (N-tert-butoxycarbonyl)-L-selenocysteine methyl ester in either methanol or phosphate buffer and incubated for 40 min, 24 h, and 120 h under N2 gas balloon. Additional amounts of NaBH4 were added at 12 h and 96 h to maintain the reducing conditions. Aliquots taken from methanol solution at each of the time points were concentrated in vacuo, mixed with water, and extracted with ethyl acetate. The organic layer was separated, concentrated in vacuo, re-dissolved in methanol and analyzed by LCMS. Aliquots taken from the phosphate buffer solution were extracted with ethyl acetate. The resulting organic layer was separated and concentrated in vacuo. The residue was re-dissolved in methanol and analyzed by LCMS. […] No additional spots were detected by TLC as well.
Covalent TGR inhibitor TRi-1 was used as a positive control for the reaction with (N-tert-butoxycarbonyl)-L-selenocysteine methyl ester. The reactivity of TRi-1 was tested similarly as described above for compound 2.

[3] = Stability of compound under biochemical assay conditions with recombinant TGR (LC-MS); assay type: physicochemical; settings: with or without NADPH
Description: TGR assay solutions (1 ml each) were prepared as described in the main manuscript. […] Each of the reaction mixtures were terminated by the addition of 250 µl of ethyl acetate, extracted with 1 ml of methyl tert-butyl ether. The organic layer was evaporated in vacuo, and the residue was redissolved in 0.5 mL of 50% MeOH before injection onto LC column. LC-MS analysis was done on a Waters SYNAPT quadrupole/time-of-flight mass spectrometer operated in positive ion electrospray mode. The column was Waters XBridge C8 column and gradient was from 20-90% MeCN/0.1% formic acid over 12 min.

adult worms = system: adult worms; set-up: method as in PMID 15013742; settings: overnight exposure followed by 8 days culture; cited from earlier work
juvenile worms in mice = settings: cited from earlier work
[4] = system: S. mansoni juvenile worms; set-up: method as in PMID 15013742; settings: cited from earlier work

In the case of `CCc1ccccc1-c1nc(CN[C@@H]2C[C@@H]3C[C@H]([C@H]2C)C3(C)C)c(C)o1` [Compound 2], the “plasma concentration, individual animals (Animal 1, Animal 2)” value (“plasma concentration, individual animals” below) ([1]; PO 200 mg/kg, 0.5 Hour) is reported as 0.255 ug/mL and 0.704 uM, the “plasma concentration, individual animals” value ([1]; PO 200 mg/kg, 1 Hour) is reported as 0.273 ug/mL and 0.767 uM and the “plasma concentration, individual animals” value ([1]; PO 200 mg/kg, 2 Hour) is reported as 0.135 ug/mL and 0.409 uM. For the same compound, the concentration at 30 min ([1]; Plasma concentration, mice, oral gavage, 30 min) was 714 nM and 252 ng/mL, the concentration at 60 min ([1]; Plasma concentration, mice, oral gavage, 60 min) was 771 nM and 272 ng/mL and the concentration at 120 min ([1]; Plasma concentration, mice, oral gavage, 120 min) was 396 nM and 140 ng/mL. It also gave a concentration at 0.5 h ([1]; plasma concentration, Average, PO 200 mg/kg, 0.5 Hour) of 252 ng/mL, a concentration at 1 h ([1]; plasma concentration, Average, PO 200 mg/kg, 1 Hour) of 272 ng/mL and a concentration at 2 h ([1]; plasma concentration, Average, PO 200 mg/kg, 2 Hour) of 140 ng/mL. For the same compound, the concentration at 0.5 h ([1]; plasma concentration, individual animals (Animal 1, Animal 2), PO 200 mg/kg, 0.5 Hour) was 724 nM and 248 ng/mL, the concentration at 1 h ([1]; plasma concentration, individual animals (Animal 1, Animal 2), PO 200 mg/kg, 1 Hour) was 774 nM and 270 ng/mL and the concentration at 2 h ([1]; plasma concentration, individual animals (Animal 1, Animal 2), PO 200 mg/kg, 2 Hour) was 383 nM and 144 ng/mL. It also gave a concentration at 30 min ([1]; plasma concentration, mice, 200 mg/kg p.o., 30 min) of 710 nM, a concentration at 60 min ([1]; plasma concentration, mice, 200 mg/kg p.o., 60 min) of 770 nM and a concentration at 120 min ([1]; plasma concentration, mice, 200 mg/kg p.o., 120 min) of 400 nM. For the same compound, the plasma concentration ([1]; mice, 200 mg/kg p.o., 30 min) was 714 nM, the plasma concentration ([1]; mice, 200 mg/kg p.o., 60 min) was 771 nM and the plasma concentration ([1]; mice, 200 mg/kg p.o., 120 min) was 396 nM. For the same compound, the maximum plasma concentration ([1]; mice, PO 200 mg/kg) was 0.77 µM, the “reaction with thiol or selenol groups in GSH or protected selenocysteine” value [2] was “No additional peaks were detected; also recorded: no reaction” and the “formation of derivatives under biochemical assay conditions” value [3] was “No additional ions except for those corresponding to 2 were detected; also recorded: no formation of derivatives”.

For `O=C(C1CCCCC1)N1CC(=O)N2CCc3ccccc3C2C1` (centres unmarked) [PZQ, praziquantel], the “LD50 against adult worms, female” value (adult worms) is given as 5.1 µM, the “LD50 against adult worms, male” value (adult worms) is given as 1.5 µM and the “reduction in worm burden” value (juvenile worms in mice; mice, 500 mg/kg, 21 d.p.i.) is given as 0%. For the same compound, the “reduction in worm burden” value (juvenile worms in mice; mice, 500 mg/kg, 28 d.p.i.) was 0%, the “reduction in worm burden” value (juvenile worms in mice; mice, 1,000 mg/kg, 21 d.p.i.) was 50% and the “reduction in worm burden” value (juvenile worms in mice; mice, 1,000 mg/kg, 28 d.p.i.) was 17%. For the same compound, the ED50 (juvenile worms in mice; mice, doses titrated 28 d.p.i.) was 2,456 mg/kg and the “LD50 of PZQ against ex vivo S. mansoni juvenile worms” value [4] was 413 µM.
